Data from article PMC10079235 (PLOS Neglected Tropical Diseases, 2023).
pEC50: −log10 of the molar value. Counter-ions that a name gives are not always drawn. Like-named read-outs stand apart in the source and are kept apart here.

Assays:
HCT-8/WT(NTZ) cells = test: MTS cytotoxicity (drug tolerance) assay
Method: (§1) Host cell drug tolerance to specified inhibitors was evaluated by 3-(4,5-dimethylthiazol-2-yl)-5-(3-carboxymethoxyphenyl)-2-(4-sulfophenyl)-2H-tetrazolium (MTS) assay. WT and transgenic host cells were seeded in 96-well plates (10,000 cells/well) and cultured for 24 h, followed by the addition of specified compounds at serially diluted concentrations and continued culture for 41 h. After 3 washes with serum-free medium, MTS solution (Saint-Bio, Shanghai, China) was added into the plates (20 μL/well) and incubated at 37°C for 2 h. Optical density at 490 nm (OD490) was measured using a Synergy LX multi-mode reader (BioTek, Winooski, VT). Drug tolerance was indicated by half-maximal cytotoxic concentrations (TC50 values) calculated by nonlinear regression using 4PL model. Selectivity index (SI) for each compound was determined by the ratio between TC50 and EC50 values (SI = TC50/EC50).
(§2) Surviving cells were allowed to recover in drug-free medium for 3–5 d to near confluence (round 1). The selection/recovery cycle were repeated once (round 2). […] Finally, all cells were cultured at the final selection concentrations of PTX or NTZ for ≥7 d, followed by culture in drug-free medium for 14 d. At this time point, cells were used for cytotoxicity and efficacy assays or cryopreserved in a liquid nitrogen tank. The resulting cell lines after PTX or NTZ selection were designated as WT(PTX), NC(PTX) and MDR1(PTX), or WT(NTZ), NC(NTZ) and MDR1(NTZ), respectively (Tables 1 and S2).

HCT-8/NC(NTZ) cells = test: MTS cytotoxicity (drug tolerance) assay
Method: as §1, §2

HCT-8/WT cells = test: MTS cytotoxicity (drug tolerance) assay; conditions: WT cells, no drug selection; MTS assay
Method: as §1

HCT-8/WT(PTX) cells = test: MTS cytotoxicity (drug tolerance) assay
Method: as §1
(§3) Surviving cells were allowed to recover in drug-free medium for 3–5 d to near confluence (round 1). The selection/recovery cycle were repeated once (round 2). […] The resulting cell lines after PTX or NTZ selection were designated as WT(PTX), NC(PTX) and MDR1(PTX), or WT(NTZ), NC(NTZ) and MDR1(NTZ), respectively (Tables 1 and S2).

HCT-8/NC cells [1] = test: MTS cytotoxicity (drug tolerance) assay; conditions: no drug selection
HCT-8/MDR1 cells = test: MTS cytotoxicity (drug tolerance) assay; conditions: for TC50: MDR1 cells, no drug selection, MTS assay
HCT-8/MDR1(PTX) cells = conditions: for Pct change of TC50 (vs NC): MDR1(PTX) vs NC cells
Method: as §1, §3

HCT-8/MDR1(NTZ) cells = test: MTS cytotoxicity (drug tolerance) assay
Method: as §1, §3

HCT-8/NC(PTX) cells = test: MTS cytotoxicity (drug tolerance) assay
Method: as §1, §3

HCT-8/NC cells [2] = conditions: human, 41 h
Cryptosporidium parvum = test: Anti-cryptosporidial efficacy assay (44-h infection/qRT-PCR); conditions: for pEC50: Cryptosporidium parvum; for On-target (Eon) rate at EC50: Eq 2; for Eoff, proportion of off-parasite-target effect / Eon, proportion of on-parasite-target effect: MDR1(PTX) vs. NC model, Eq 3 and 4
[3] = after selection by NTZ vs parent cell line
[4] = after selection by PTX vs parent cell line

## CN(C)C(=O)C(CCN1CCC(O)(c2ccc(Cl)cc2)CC1)(c1ccccc1)c1ccccc1 [Loperamide, Loperamide HCl]
HCT-8/WT(NTZ) cells; WT(NTZ) cells, after selection by NTZ
  TC50: 16.23 µM
HCT-8/NC(NTZ) cells; NC(NTZ) cells, after selection by NTZ
  TC50: 15.64 µM
HCT-8/WT cells
  TC50: 15.96 µM
HCT-8/WT(PTX) cells; WT(PTX) cells, after selection by PTX
  TC50: 16.42 µM
HCT-8/NC cells [1]
  TC50: 16.08 µM
HCT-8/MDR1 cells
  TC50: 16.49 µM

## O=C1c2c(O)ccc(O)c2C(=O)c2c(NCCNCCO)ccc(NCCNCCO)c21 [Mitoxantrone, Mitoxantrone 2HCl]
HCT-8/WT(NTZ) cells; [3]
  Fold increase of TC50 WT(NTZ) vs. WT: 0.96
HCT-8/WT(NTZ) cells; human, 41 h
  TC50: 4.15 µM
HCT-8/NC(NTZ) cells; [3]
  Fold increase of TC50 NC(NTZ) vs. NC: 1.02
HCT-8/NC(NTZ) cells; human, 41 h
  TC50: 4.19 µM
HCT-8/MDR1(PTX) cells; MDR1(PTX) cells, after selection by PTX
  TC50: 11.21 µM
HCT-8/MDR1(PTX) cells
  Pct change of TC50 (vs NC): 172.7%
HCT-8/MDR1(PTX) cells; listed as MXT
  Pct change of TC50 (vs NC): 172.7%
HCT-8/MDR1(PTX) cells; after selection by PTX
  Fold change of TC50 MDR1(PTX) vs. NC: 2.73
HCT-8/MDR1(PTX) cells; [4]
  Fold change of TC50 MDR1(PTX) vs. MDR1: 1.65
HCT-8/MDR1(PTX) cells; ratio of TC50
  Fold change of TC50 MDR1(PTX)/NC(PTX): 2.58
HCT-8/WT cells
  TC50: 4.31 µM
HCT-8/WT(PTX) cells; [4]
  Fold change of TC50 WT(PTX) vs. WT: 0.98
HCT-8/WT(PTX) cells; human, 41 h
  TC50: 4.23 µM
HCT-8/MDR1(NTZ) cells; MDR1(NTZ) cells, after selection by NTZ
  TC50: 6.74 µM
HCT-8/MDR1(NTZ) cells; after selection by NTZ
  Fold increase of TC50 MDR1(NTZ) vs. NC: 1.64
HCT-8/MDR1(NTZ) cells; [3]
  Fold increase of TC50 MDR1(NTZ) vs. MDR1: 0.99
HCT-8/NC(PTX) cells; [4]
  Fold change of TC50 NC(PTX) vs. NC: 1.06
HCT-8/NC(PTX) cells; human, 41 h
  TC50: 4.34 µM
HCT-8/MDR1 cells
  TC50: 6.79 µM
HCT-8/MDR1 cells; ratio of TC50, MDR1 vs NC cells
  Fold change of TC50 MDR1/NC: 1.65
HCT-8/NC cells [2]
  TC50: 4.11 µM
Cryptosporidium parvum; MDR1, read-out: Antiparasitic efficacy (EC50), C. parvum cultured in MDR1(PTX) host cells
  pEC50: 5.38
Cryptosporidium parvum; read-out: Antiparasitic efficacy (EC50), C. parvum cultured in NC host cells
  pEC50: 5.69
Cryptosporidium parvum; read-out: Antiparasitic efficacy (EC50), C. parvum cultured in WT host cells
  pEC50: 5.68
Cryptosporidium parvum; MDR1(PTX) cell model
  On-target (Eon) rate at EC50: 39.8%
Cryptosporidium parvum; MDR1(PTX) cell model, listed as MXT
  On-target (Eon) rate at EC50: 39.8%
Cryptosporidium parvum; MDR1(PTX) cell model, from Pct changes of EC50 and TC50 (Eq 1)
  Off-target (Eoff) rate at EC50: 60.2%
Cryptosporidium parvum; MDR1-transgenic host cell model
  Action on parasite target (on-target) conclusion: partially on-target
Cryptosporidium parvum; TC50/EC50 in MDR1(PTX) cells
  Selectivity index (SI): 2.69
Cryptosporidium parvum; TC50/EC50 in NC cells
  Selectivity index (SI): 2.01
Cryptosporidium parvum; TC50/EC50 in WT cells
  Selectivity index (SI, k): 2.08
Cryptosporidium parvum; at EC10
  Eoff, proportion of off-parasite-target effect: 39.80%
  Eon, proportion of on-parasite-target effect: 60.20%
Cryptosporidium parvum; at EC20
  Eoff, proportion of off-parasite-target effect: 47.10%
  Eon, proportion of on-parasite-target effect: 52.90%
Cryptosporidium parvum; at EC30
  Eoff, proportion of off-parasite-target effect: 52.00%
  Eon, proportion of on-parasite-target effect: 48.00%
Cryptosporidium parvum; at EC40
  Eoff, proportion of off-parasite-target effect: 56.10%
  Eon, proportion of on-parasite-target effect: 43.90%
Cryptosporidium parvum; at EC50
  Eoff, proportion of off-parasite-target effect: 60.0%
  Eon, proportion of on-parasite-target effect: 40.0%
Cryptosporidium parvum; at EC60
  Eoff, proportion of off-parasite-target effect: 63.90%
  Eon, proportion of on-parasite-target effect: 36.10%
Cryptosporidium parvum; at EC70
  Eoff, proportion of off-parasite-target effect: 68.20%
  Eon, proportion of on-parasite-target effect: 31.80%
Cryptosporidium parvum; at EC80
  Eoff, proportion of off-parasite-target effect: 73.60%
  Eon, proportion of on-parasite-target effect: 26.40%
Cryptosporidium parvum; at EC90
  Eoff, proportion of off-parasite-target effect: 81.90%
  Eon, proportion of on-parasite-target effect: 18.10%
